pKd: −log10 of the molar value.
Target: CXCL12 (Homo sapiens, UniProt P48061)
Assay: 1H-15N HSQC NMR titration of […]-CXCL12 (global fit of eight resonances, pH […]); supported by SEC-MALS
Format: binding

CXCL12, sequence (P48061 22-88): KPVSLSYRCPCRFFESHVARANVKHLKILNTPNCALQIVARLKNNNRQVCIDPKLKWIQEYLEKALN

`O=C(O)c1ccccc1OP(=O)(O)O` [fosfosal, 2-(phosphonooxy) benzoic acid] was tested, and the pKd was 3.83.
